Experimental data taken from ChEMBL document CHEMBL1909046, “DrugMatrix in vitro pharmacology data”.

Legend:
[1] = target: T1, Type-2 angiotensin II receptor (Homo sapiens, UniProt P50052); assay type: cell-based; details: cho-k1; also: in other assays of this panel Not Active means under 50% inhibition at 10 µM
T1 sequence (P50052 whole entry): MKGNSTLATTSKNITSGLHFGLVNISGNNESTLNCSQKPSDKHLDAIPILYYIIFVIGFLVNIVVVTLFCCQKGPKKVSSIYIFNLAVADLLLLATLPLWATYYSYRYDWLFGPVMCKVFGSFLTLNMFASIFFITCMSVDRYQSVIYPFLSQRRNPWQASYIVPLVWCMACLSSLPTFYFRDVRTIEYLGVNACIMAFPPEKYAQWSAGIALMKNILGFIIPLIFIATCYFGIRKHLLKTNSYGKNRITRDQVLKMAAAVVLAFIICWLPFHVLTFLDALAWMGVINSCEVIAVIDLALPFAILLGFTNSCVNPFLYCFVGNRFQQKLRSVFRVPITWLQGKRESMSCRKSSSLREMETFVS

[2] = target: 5-hydroxytryptamine receptor 6 (Homo sapiens, UniProt P50406); assay type: cell membranes, HeLa, Membrane; also: in other assays of this panel Not Active means under 50% inhibition at 10 µM
Endothelin-1 receptor = target: T2, Endothelin-1 receptor (Homo sapiens, UniProt P25101); assay type: cell membranes, CHO-K1, Membrane; details: cho-k1; also: in other assays of this panel Not Active means under 50% inhibition at 10 µM
T2 sequence (P25101 whole entry): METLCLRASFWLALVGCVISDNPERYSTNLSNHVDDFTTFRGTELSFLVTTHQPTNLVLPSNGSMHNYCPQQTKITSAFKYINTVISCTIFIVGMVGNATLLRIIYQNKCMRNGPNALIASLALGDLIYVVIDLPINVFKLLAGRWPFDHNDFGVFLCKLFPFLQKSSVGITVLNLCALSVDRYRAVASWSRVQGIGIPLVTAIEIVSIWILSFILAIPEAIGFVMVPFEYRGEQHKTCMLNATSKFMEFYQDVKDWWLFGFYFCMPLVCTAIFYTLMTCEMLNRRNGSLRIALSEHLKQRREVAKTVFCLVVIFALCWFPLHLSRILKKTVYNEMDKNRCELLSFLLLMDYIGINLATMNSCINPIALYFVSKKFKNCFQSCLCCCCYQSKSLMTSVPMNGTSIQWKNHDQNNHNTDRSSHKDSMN

[3] = DRUGMATRIX: GABAA, Flunitrazepam, Central radioligand binding (ligand: [3H] Flunitrazepam); assay type: cell membranes, Rattus norvegicus, Wistar, Brain, Membrane; details: Not Active = under 50% inhibition at 10 µM
[4] = target: T3, Neuropeptide Y receptor type 1 (Homo sapiens, UniProt P25929); assay type: cell membranes, Membrane; details: sk-n-mc; also: in other assays of this panel Not Active means under 50% inhibition at 10 µM
T3 sequence (P25929 whole entry): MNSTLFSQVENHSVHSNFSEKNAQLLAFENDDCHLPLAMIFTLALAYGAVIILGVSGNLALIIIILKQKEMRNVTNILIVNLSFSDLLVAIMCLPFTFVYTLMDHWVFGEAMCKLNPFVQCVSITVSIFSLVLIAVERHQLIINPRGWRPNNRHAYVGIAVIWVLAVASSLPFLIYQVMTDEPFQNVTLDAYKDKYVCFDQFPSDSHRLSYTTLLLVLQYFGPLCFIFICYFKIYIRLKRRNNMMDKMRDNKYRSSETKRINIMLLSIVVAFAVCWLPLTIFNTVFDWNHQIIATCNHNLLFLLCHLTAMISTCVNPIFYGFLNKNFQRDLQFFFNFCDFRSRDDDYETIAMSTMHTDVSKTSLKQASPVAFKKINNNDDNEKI

[5] = target: Tyrosine-protein kinase Lck (Homo sapiens, UniProt P06239); assay: DRUGMATRIX: Protein Tyrosine Kinase, LCK enzyme inhibition (substrate: Poly(Glu:Tyr)); assay type: cell-based, Insect cells; details: Not Active = under 50% inhibition at 10 µM
Glucocorticoid receptor = target: T4, Glucocorticoid receptor (Homo sapiens, UniProt P04150); details: hela s3; also: in other assays of this panel Not Active means under 50% inhibition at 10 µM
T4 sequence (P04150 whole entry): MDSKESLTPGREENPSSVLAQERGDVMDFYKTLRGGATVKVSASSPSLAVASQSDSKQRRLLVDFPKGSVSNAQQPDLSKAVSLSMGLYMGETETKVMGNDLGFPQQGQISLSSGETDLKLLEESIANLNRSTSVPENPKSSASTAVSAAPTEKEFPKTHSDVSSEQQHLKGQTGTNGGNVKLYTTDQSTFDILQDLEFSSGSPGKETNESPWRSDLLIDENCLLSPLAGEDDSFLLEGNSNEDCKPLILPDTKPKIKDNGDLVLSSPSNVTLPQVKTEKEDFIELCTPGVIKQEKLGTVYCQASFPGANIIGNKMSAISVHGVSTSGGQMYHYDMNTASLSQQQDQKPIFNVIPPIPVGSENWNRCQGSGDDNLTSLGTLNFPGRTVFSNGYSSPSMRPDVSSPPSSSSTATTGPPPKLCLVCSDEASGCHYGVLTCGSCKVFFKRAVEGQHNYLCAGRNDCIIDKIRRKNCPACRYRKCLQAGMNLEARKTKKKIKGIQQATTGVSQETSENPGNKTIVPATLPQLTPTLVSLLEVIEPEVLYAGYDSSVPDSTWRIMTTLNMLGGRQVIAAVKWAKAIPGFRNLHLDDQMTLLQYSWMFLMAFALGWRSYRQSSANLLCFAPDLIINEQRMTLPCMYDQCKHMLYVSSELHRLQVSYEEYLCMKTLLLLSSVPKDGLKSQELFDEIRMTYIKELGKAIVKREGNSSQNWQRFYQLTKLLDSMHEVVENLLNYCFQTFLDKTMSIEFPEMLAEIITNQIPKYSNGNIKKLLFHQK

Sequence of Tyrosine-protein kinase Lck (P06239 whole entry): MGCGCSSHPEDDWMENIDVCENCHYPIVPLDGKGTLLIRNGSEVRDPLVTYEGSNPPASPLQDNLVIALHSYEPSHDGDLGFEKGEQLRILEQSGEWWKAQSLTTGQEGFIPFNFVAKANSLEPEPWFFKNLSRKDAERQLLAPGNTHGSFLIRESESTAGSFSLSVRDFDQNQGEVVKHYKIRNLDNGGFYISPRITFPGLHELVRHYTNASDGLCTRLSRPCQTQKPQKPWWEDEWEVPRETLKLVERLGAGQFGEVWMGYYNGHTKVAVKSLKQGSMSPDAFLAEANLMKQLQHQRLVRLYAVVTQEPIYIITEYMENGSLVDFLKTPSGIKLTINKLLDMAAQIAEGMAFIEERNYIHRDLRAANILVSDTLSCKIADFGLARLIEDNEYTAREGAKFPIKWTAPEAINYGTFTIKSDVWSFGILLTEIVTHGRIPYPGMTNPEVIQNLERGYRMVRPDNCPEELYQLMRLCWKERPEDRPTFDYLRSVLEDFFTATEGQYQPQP
Sequence of 5-hydroxytryptamine receptor 6 (P50406 whole entry): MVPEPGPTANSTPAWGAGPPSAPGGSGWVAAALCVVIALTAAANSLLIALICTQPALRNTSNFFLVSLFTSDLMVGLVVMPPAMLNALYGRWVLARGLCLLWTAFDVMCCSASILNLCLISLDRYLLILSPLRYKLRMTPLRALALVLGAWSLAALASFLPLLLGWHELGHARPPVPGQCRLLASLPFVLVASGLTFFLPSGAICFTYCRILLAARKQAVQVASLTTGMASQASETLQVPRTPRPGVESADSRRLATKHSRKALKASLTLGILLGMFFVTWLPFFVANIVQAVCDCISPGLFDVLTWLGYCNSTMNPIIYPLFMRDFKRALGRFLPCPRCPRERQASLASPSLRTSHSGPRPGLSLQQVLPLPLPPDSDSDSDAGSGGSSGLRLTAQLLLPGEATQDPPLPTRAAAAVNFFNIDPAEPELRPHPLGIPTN

Compound: Nn1nnc2ccccc21
- IC50 [1]: Not Active
- IC50 ([2]; hela): Not Active
- IC50 (Endothelin-1 receptor): Not Active
- IC50 [3]: Not Active
- Ki [3]: Not Active
- IC50 [4]: Not Active
- IC50 ([5]; insect cells): Not Active
- IC50 (Glucocorticoid receptor): Not Active

Compound: COc1ccccc1OCC(O)COC(N)=O (stereo not given) [METHOCARBAMOL]
- IC50 [1]: Not Active
- IC50 ([2]; hela): Not Active
- IC50 (Endothelin-1 receptor): Not Active
- IC50 [3]: Not Active
- Ki [3]: Not Active
- IC50 [4]: Not Active
- IC50 ([5]; insect cells): Not Active
- IC50 (Glucocorticoid receptor): Not Active

Compound: CC(C(=O)O)c1ccc(-c2ccccc2)c(F)c1 (stereo not given) [FLURBIPROFEN]
- IC50 [1]: Not Active
- IC50 ([2]; hela): Not Active
- IC50 (Endothelin-1 receptor): Not Active
- IC50 [3]: Not Active
- Ki [3]: Not Active
- IC50 [4]: Not Active
- IC50 ([5]; insect cells): Not Active
- IC50 (Glucocorticoid receptor): Not Active

Compound: Cc1c(F)c(N2CCNC(C)C2)cc2c1c(=O)c(C(=O)O)cn2C1CC1 (stereo not given) [GREPAFLOXACIN]
- IC50 [1]: Not Active
- IC50 ([2]; hela): Not Active
- IC50 (Endothelin-1 receptor): Not Active
- IC50 [3]: Not Active
- Ki [3]: Not Active
- IC50 [4]: Not Active
- IC50 ([5]; insect cells): Not Active
- IC50 (Glucocorticoid receptor): Not Active

Compound: Oc1ccccc1O [CATECHOL]
- IC50 [1]: Not Active
- IC50 ([2]; hela): Not Active
- IC50 (Endothelin-1 receptor): Not Active
- IC50 [3]: Not Active
- Ki [3]: Not Active
- IC50 [4]: Not Active
- IC50 ([5]; insect cells): Not Active
- IC50 (Glucocorticoid receptor): Not Active

Compound: O=P1(N(CCCl)CCCl)NCCCO1 (stereo not given) [CYCLOPHOSPHAMIDE ANHYDROUS]
- IC50 [1]: Not Active
- IC50 ([2]; hela): Not Active
- IC50 (Endothelin-1 receptor): Not Active
- IC50 [3]: Not Active
- Ki [3]: Not Active
- IC50 [4]: Not Active
- IC50 ([5]; insect cells): Not Active
- IC50 (Glucocorticoid receptor): Not Active

Compound: INSULIN HUMAN
- IC50 [1]: Not Active
- Ki [1]: Not Active
- IC50 ([2]; hela): Not Active
- Ki ([2]; hela): Not Active
- IC50 (Endothelin-1 receptor): Not Active
- Ki (Endothelin-1 receptor): Not Active
- IC50 [3]: Not Active
- Ki [3]: Not Active
- IC50 [4]: Not Active
- Ki [4]: Not Active
- IC50 ([5]; insect cells, read-out: IC50): 18.1 µM
- IC50 (Glucocorticoid receptor): Not Active
- Ki (Glucocorticoid receptor): Not Active

Compound: O=C(/C=C/c1ccc(O)c(O)c1)OCCc1ccccc1 [CAFFEIC ACID PHENETHYL ESTER]
- IC50 [1]: Not Active
- IC50 ([2]; hela): Not Active
- IC50 (Endothelin-1 receptor): Not Active
- IC50 [3]: Not Active
- Ki [3]: Not Active
- IC50 [4]: Not Active
- IC50 ([5]; read-out: IC50): 2.89 µM
- IC50 (Glucocorticoid receptor): Not Active

Compound: Nc1nc(Cl)nc2c1ncn2[C@H]1C[C@H](O)[C@@H](CO)O1 [CLADRIBINE]
- IC50 [1]: Not Active
- IC50 ([2]; hela): Not Active
- IC50 (Endothelin-1 receptor): Not Active
- IC50 [3]: Not Active
- Ki [3]: Not Active
- IC50 [4]: Not Active
- IC50 ([5]; insect cells): Not Active
- IC50 (Glucocorticoid receptor): Not Active

Compound: CN1C[C@H](C(=O)N[C@]2(C)O[C@@]3(O)[C@@H]4CCCN4C(=O)[C@H](Cc4ccccc4)N3C2=O)C[C@@H]2c3cccc4[nH]cc(c34)C[C@H]21 [DIHYDROERGOTAMINE]
- IC50 [1]: Not Active
- IC50 ([2]; read-out: IC50): 3.2 nM
- Ki ([2]; read-out: Ki): 1.49 nM
- IC50 (Endothelin-1 receptor): Not Active
- IC50 [3]: Not Active
- Ki [3]: Not Active
- IC50 [4]: Not Active
- IC50 ([5]; insect cells): Not Active
- IC50 (Glucocorticoid receptor): Not Active

Compound: CC[C@H](C)C(=O)O[C@H]1C[C@@H](C)C=C2C=C[C@H](C)[C@H](CC[C@@H]3C[C@@H](O)CC(=O)O3)[C@H]21 [LOVASTATIN]
- IC50 [1]: Not Active
- IC50 ([2]; hela): Not Active
- IC50 (Endothelin-1 receptor): Not Active
- IC50 [3]: Not Active
- Ki [3]: Not Active
- IC50 [4]: Not Active
- IC50 ([5]; insect cells): Not Active
- IC50 (Glucocorticoid receptor): Not Active

Compound: CC[C@H](C)C(=O)O[C@H]1C[C@H](O)C=C2C=C[C@H](C)[C@H](CC[C@@H](O)C[C@@H](O)CC(=O)O)[C@H]21 [PRAVASTATIN]
- IC50 [1]: Not Active
- IC50 ([2]; hela): Not Active
- IC50 (Endothelin-1 receptor): Not Active
- IC50 [3]: Not Active
- Ki [3]: Not Active
- IC50 [4]: Not Active
- IC50 ([5]; insect cells): Not Active
- IC50 (Glucocorticoid receptor): Not Active

Compound: CCOC(=O)n1ccn(C)c1=S [CARBIMAZOLE]
- IC50 [1]: Not Active
- IC50 ([2]; hela): Not Active
- IC50 (Endothelin-1 receptor): Not Active
- IC50 [3]: Not Active
- Ki [3]: Not Active
- IC50 [4]: Not Active
- Ki ([5]; insect cells): Not Active
- IC50 (Glucocorticoid receptor): Not Active
